Laboratory results taken from patent US4022900A, “Compositions containing 1,2,3,4-tetrahydroisoquinolines used as hypotensive agents” (Marion Laboratories, Inc., priority 1972, dated 1977).
Counter-ions that a name gives are not always drawn. Like-named read-outs stand apart in the source and are kept apart here.

Key:
[1] = system: systolic blood pressure of deoxycorticosterone acetate hypertensive rats; assay: Hypotensive activity in DCA/saline hypertensive rats (systolic blood pressure, tail cuff); format: in vivo, rat (male, CD strain); conditions: for Lowering of Blood Pressure in Hypertensive rate in mm's of Hg., 1 hr. / Lowering of Blood Pressure in Hypertensive rate in mm's of Hg., 2 hrs. / Lowering of Blood Pressure in Hypertensive rate in mm's of Hg., 4 hrs. / Lowering of Blood Pressure in Hypertensive rate in mm's of Hg., 24 hrs. / compounds which appear most active from Table I: 50 mg/kg intraperitoneal; for Lowering of Blood Pressure in Hypertensive rate in mm's of Hg., 1 hr. / Lowering of Blood Pressure in Hypertensive rate in mm's of Hg., 2 hrs. / Lowering of Blood Pressure in Hypertensive rate in mm's of Hg., 4 hrs. / Lowering of Blood Pressure in Hypertensive rate in mm's of Hg., 24 hrs.: change vs predrug control, six rats; for compounds which appear most active from Table I: qualitative ranking; for Percent Change in Pressure from Control ± S.E., 1 Hour / Percent Change in Pressure from Control ± S.E., 2 Hours / Percent Change in Pressure from Control ± S.E., 4 Hours / Percent Change in Pressure from Control ± S.E., 24 Hours: 50 mg/kg i.p., systolic pressure, * <0.05 significance (Newman-Keuls)
Experimental: Hypertension was produced in weanling (30-day old) male rats of the CD strain obtained from the Charles River Breeding Laboratories (Wilmington, Mass.) by subcutaneously implanting about the dorsal surface of the neck a pellet of deoxycorticosterone acetate (DCA) containing 10 mg DCA in a mixture of Carbowax 4000 (Union Carbide) and Flexowax C light (Glyco Products). Their drinking water was replaced by a 1% sodium chloride solution, a procedure known to facilitate the development of an experimental hypertension, and they had free access to chow. Systolic blood pressure in the caudal arteries was measured indirectly by a pneumatic pulse transducer and a tail pressure cuff on a Physiograph Four recorder (Narco Bio-Systems, Inc., Houston, Texas) in unanesthetized but restrained rats prewarmed to 40° C., 10-15 minutes prior to the determination. The rats were kept at a temperature of 40° C. for all determinations of systolic pressure in an attempt to minimize variations in blood pressure due to marked changes in arterial tone caused by changes in temperature. Blood pressures were measured at intervals in the DCA-treated rats given saline and in non-treated control rats. After 20 days, the mean systolic pressure in the DCA-treated rats was above 150 mm Hg. Hypertension was regarded as being established in the rats at this stage and they were at intervals, usually beginning with the 30th day after DCA-implant in testing for hypotensive activity. Following a series of control blood pressure readings, a dose of 50 mg/kg of the compound under investigation was administered by intraperitoneal injection either in solution or as a suspension in 1% tragacanth solution to groups of six hypertensive rats. Blood pressures were redetermined at 1, 2, 4 and 24 hour periods following injection. At each interval, the systolic pressure was measured a minimum of five times in each rat and the average value was calculated. Mean values for the group were calculated from the individual average values and compared with their predrug control levels. The statistical significance of the changes produced by the compounds, in the doses employed, was tested by the "t" test as well as by an analysis of variance. The reductions in blood pressure obtained with the indicated representative tetrahydroisoquinoline compounds are shown in Table I. The code number for the compound and the example herein showing its preparation are both given in Table I.
(§1) Additional compounds have been tested. The toxicity data for the additional compounds tested, and their identity, is given in the following Table II while the blood pressure lowering activity of the compounds is given in the following Table III. The heading "Example Number" in the tables refers to the working example herein which discloses the compounds and its preparation. The test procedure used for determining the blood pressure lowering activity of the compounds is the same as that previously set forth herein. However, the figures in Table III are expressed as percentage change in blood pressure, rather than in mm of mercury change in blood pressure, as presented in Table I herein.

[2] = Acute toxicity (LD50) in the mouse; conditions: in vivo; for LD50 at 24 h: read-out: Approximate Acute Toxicity (24 hrs.) In the Mouse, LD50
Experimental: 5-(3,4,5-trimethoxybenzamido)-2-methyl-1,2,3,4-tetrahydroisoquinoline (M-20) in mice has an LD-50 of about 125 to 250 mg/kg intraperitoneally.
as §1
Approximate Acute Toxicity (24 hrs.)
(a) Suspension in 1% tragacanth
(b) Solution in distilled water
(c) Solubilized with the aid of dilute acid

[3] = system: arterial blood pressure of anesthetized dog; assay: Arterial blood pressure in the anesthetized dog; format: in vivo; conditions: 5 mg/kg intravenously
femoral artery of a dog = assay: Peripheral vasodilator activity after administration into femoral artery of a dog; format: in vivo; conditions: into the femoral artery, compared with papaverine
[4] = Table I, unit, species and route not given

SMILES	Lowering of Blood Pressure in Hypertensive rate in mm's of Hg., 1 hr. [1]	Lowering of Blood Pressure in Hypertensive rate in mm's of Hg., 2 hrs. [1]	Lowering of Blood Pressure in Hypertensive rate in mm's of Hg., 4 hrs. [1]	Lowering of Blood Pressure in Hypertensive rate in mm's of Hg., 24 hrs. [1]	LD50 [2, 4]	compounds which appear most active from Table I [1]	LD50 ([2]; ip, mice, intraperitoneally, about)	arterial blood pressure [3]	peripheral vasodilator activity (femoral artery of a dog)	Percent Change in Pressure from Control ± S.E., 1 Hour [1]	Percent Change in Pressure from Control ± S.E., 2 Hours [1]	Percent Change in Pressure from Control ± S.E., 4 Hours [1]	Percent Change in Pressure from Control ± S.E., 24 Hours [1]	LD50 at 24 h ([2]; ip, suspension in 1% tragacanth)	LD50 at 24 h ([2]; ip, solubilized with the aid of dilute acid)
CN1CCc2c(cccc2NC(=O)c2ccccc2F)C1 [M-68, 5-(2-Fluorobenzamido)-2-methyl-1,2,3,4-tetrahydroisoquinoline]	-13±5 mm's of Hg	-10±5 mm's of Hg	-11±4 mm's of Hg	-20±4 mm's of Hg	250 to 500 mg/kg										
COc1cccc(OC)c1C(=O)Nc1cccc2c1CCN(C)C2 [M-57, 5-(2,6-Dimethoxybenzamido)-2-methyl-1,2,3,4-tetrahydroisoquinoline]	-2±8 mm's of Hg	-7±5 mm's of Hg	-14±10 mm's of Hg	-14±10 mm's of Hg	250 to 500 mg/kg										
COc1cc(C(=O)Nc2ccc3c(c2)CN(C)CC3)cc(OC)c1OC [M-59, 7-(3,4,5-Trimethoxybenzamido)-2-methyl-1,2,3,4-tetrahydroisoquinoline]	-60±7 mm's of Hg	-46±7 mm's of Hg	-34±6 mm's of Hg	-18±7 mm's of Hg	250 to 500 mg/kg	most active									
CN1CCc2c(cccc2NC(=O)c2ccccc2Br)C1 [M-60, 5-(2-Bromobenzamido)-2-methyl-1,2,3,4-tetrahydroisoquinoline]	-12±4 mm's of Hg	-10±8 mm's of Hg	-20±3 mm's of Hg	-26±4 mm's of Hg	125 to 250 mg/kg										
COc1cc(C(=O)Nc2cccc3c2CCN(C)C3)cc(OC)c1OC [M-20, 5-(3,4,5-Trimethoxybenzamido)-2-methyl-1,2,3,4-tetrahydroisoquinoline]	-19±3 mm's of Hg	-26±2 mm's of Hg	-15±10 mm's of Hg	-3±2 mm's of Hg	125 to 250 mg/kg		125 to 250 mg/kg	decreased arterial blood pressure	peripheral vasodilator activity although less than that of papaverine						
CN1CCc2c(cccc2NC(=O)c2ccccc2Cl)C1 [M-63, 5-(2-Chlorobenzamido)-2-methyl-1,2,3,4-tetrahydroisoquinoline]	-25±2 mm's of Hg	-36±4 mm's of Hg	-34±4 mm's of Hg	-28±4 mm's of Hg	125 to 188 mg/kg	most active									
COc1cc(C(=O)Nc2cccc3c2CN(C)CC3)cc(OC)c1OC [M-65, 8-(3,4,5-Trimethoxybenzamido)-2-methyl-1,2,3,4-tetrahydroisoquinoline]	-55±10 mm's of Hg	-44±8 mm's of Hg	-27±3 mm's of Hg	-21±7 mm's of Hg	250 to 500 mg/kg	most active									
COc1ccc(C(=O)Nc2cccc3c2CCN(C)C3)cc1 [M-56, 5-(4-Methoxybenzamido)-2-methyl-1,2,3,4-tetrahydroisoquinoline]	-14±5 mm's of Hg	-30±8 mm's of Hg	-19±6 mm's of Hg	-18±4 mm's of Hg	62 to 125 mg/kg										
COc1ccc(C(=O)Nc2cccc3c2CCNC3)cc1 [M-44, 5-(4-Methoxybenzamido)-1,2,3,4-tetrahydroisoquinoline HCl]										-8.8 ± 4.8%	-6.5 ± 3.7%	-8.3 ± 2.4%	-6.4 ± 1.3%	500 to 1000 mg/kg	
COc1ccc(C(=O)Nc2cccc3c2CCNC3)cc1OC [M-34, 5-(3,4-Dimethoxybenzamido)-1,2,3,4-tetrahydroisoquinoline HCl]	-33±5 mm's of Hg	-28±7 mm's of Hg	-23±4 mm's of Hg	-2±6 mm's of Hg	500 to 1000 mg/kg	most active									
COc1cc(OC)c(C(=O)Nc2cccc3c2CCN(C)C3)cc1OC [M-61, 5-(2,4,5-Trimethoxybenzamido)-2-methyl-1,2,3,4-tetrahydroisoquinoline]	-15±4 mm's of Hg	-19±5 mm's of Hg	-15±4 mm's of Hg	-6±6 mm's of Hg	68 to 125 mg/kg										
CCCN1CCc2c(cccc2NC(=O)c2ccc(OC)cc2)C1 [M-50, 5-(4-methoxybenzamido)-2-n-propyl-1,2,3,4-tetrahydroisoquinoline]										-11.3 ± 1.9%	-17.8 ± 1.4%	-10.2 ± 2.8%	-6.2%		125 to 250 mg/kg
CN1CCc2c(cccc2NC(=O)c2ccccc2)C1 [M-54, 5-(benzamido)-2-methyl-1,2,3,4-tetrahydroisoquinoline]	-7±7 mm's of Hg	-14±6 mm's of Hg	-15±6 mm's of Hg	-10±3 mm's of Hg	125 to 250 mg/kg										
